From the NIST ThermoML archive (doi:10.1007/s10765-016-2104-7)
± gives the expanded uncertainty stated by the source.

Settings: Liquid, Vibrating wire viscometry

Row | SMILES | viscosity (1273 K) [mPa·s] | viscosity (1323 K) [mPa·s] | viscosity (1373 K) [mPa·s] | viscosity (1423 K) [mPa·s] | viscosity (1473 K) [mPa·s] | viscosity (1523 K) [mPa·s] | viscosity (1573 K) [mPa·s] | viscosity (1623 K) [mPa·s] | viscosity (1673 K) [mPa·s] | viscosity (873 K) [mPa·s] | viscosity (973 K) [mPa·s] | viscosity (1073 K) [mPa·s]
1 | [Ag] [silver] | 3.52 ± 0.74 | 2.904 ± 0.45 | 2.812 ± 0.65 | 2.649 ± 0.33 | 2.54 ± 0.22 | 2.498 ± 0.46 | 2.399 ± 0.35 | 2.332 ± 0.39 | 2.214 |  |  | 
2 | [Au] [gold] |  |  | 5.625 ± 0.65 | 5.47 ± 0.16 | 4.963 ± 0.36 | 4.764 ± 0.25 | 4.495 ± 0.32 | 4.276 ± 0.51 | 3.981 ± 0.57 |  |  | 
3 | [Sn] [tin] |  |  |  |  |  |  |  |  |  | 1.253 ± 0.2 | 1.142 ± 0.3 | 1.087 ± 0.047
